For data set [1], the target named is T1, LEDGF/p75 (Homo sapiens, UniProt O75475).
T1 construct: histidine tag; made in house
Nature of the data set: ELISA binding of peptides to LEDGF/p75. Conditions: apparent Kd according to ELISA using LEDGF and BSA alone as control; peptide-coated plates, room temperature, OD 490 nm, duplicate. On the procedure: Expression and purification of the histidine-tagged IN and LEDGF/p75 expression vectors, were a generous gift from Prof. Engelman, Dana-Farber Cancer Institute and Division of AIDS, Harvard Medical School, Boston, MA, USA), were performed essentially as described previously.
Protein-peptide, protein-protein and protein-DNA binding was estimated using an ELISA-based binding assay exactly as described previously. Briefly, Maxisorp plates (Nunc) were incubated at room temperature for 2 h with […] of 10 μg/ml synthetic peptide/recombinant proteins in carbonate buffer. After incubation, the solution was removed, the plates were washed three times with PBS, and 200 μl of 10% BSA (Sigma) in PBS (w/v) was added and the plates were further incubated for 2 h at room temperature. After rewashing with PBS, the tested BSA-biotinilated (Bb) peptide or protein (alone or biotinilated) was added for a further 1-h incubation at room temperature. Following three washes with PBS, the concentration of bound molecules was estimated following the addition of streptavidin-horseradish peroxidase (HRP) conjugate (Sigma), as described previously. The enzymatic activity of HRP was estimated by monitoring the product's optical density (OD) at 490 nm using an ELISA plate reader (Tecan Sunrise, Männedorf, Switzerland). Each measurement was performed in duplicate. […]
(In an ELISA, binding on a coated surface is turned into a signal by an enzyme label.)

For data set [2] the following is noted: ref [25]; cited from earlier work. An excerpt:
Following integration of the viral cDNA, several viral proteins are expressed, among them Rev. After its nuclear import the Rev protein is involved in nuclear export of unspliced and partially spliced viral RNA molecules. Thus, similar to IN, the presence the Rev protein is essential for completion of the HIV-1 life cycle. In addition to its expression from integrated viral DNA, Rev can be expressed from unintegrated DNA molecules and thus appear at an early stage in virus-infected cells. Recently, we have shown that early expressed Rev can interact with IN in ...

Where no end group is shown, it is not given here.

T1 sequence (O75475 whole entry): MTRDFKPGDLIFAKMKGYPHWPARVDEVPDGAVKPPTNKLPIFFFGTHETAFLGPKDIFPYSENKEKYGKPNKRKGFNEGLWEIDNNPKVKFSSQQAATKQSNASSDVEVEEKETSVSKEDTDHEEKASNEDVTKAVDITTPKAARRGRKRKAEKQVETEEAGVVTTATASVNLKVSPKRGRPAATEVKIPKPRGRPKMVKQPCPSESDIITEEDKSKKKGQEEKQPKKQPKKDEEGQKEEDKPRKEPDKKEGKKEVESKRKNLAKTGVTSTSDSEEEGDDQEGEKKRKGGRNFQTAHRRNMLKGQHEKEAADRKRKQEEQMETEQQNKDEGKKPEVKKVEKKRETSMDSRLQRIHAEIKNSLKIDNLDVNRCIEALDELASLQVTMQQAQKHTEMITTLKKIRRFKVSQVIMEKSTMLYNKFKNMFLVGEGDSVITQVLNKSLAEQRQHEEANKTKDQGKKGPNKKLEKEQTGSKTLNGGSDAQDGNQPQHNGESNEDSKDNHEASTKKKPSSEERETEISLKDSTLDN

On to WTAVQMAVFIHNFKRK [INS], for which the Kd in data set [1] turned out to be 2200 ± 700 nM. In data set [2], the “cell permeability (result in words)” value is “cell-permeable”.
